PubChem BioAssay AID248 (DTP/NCI, 2004)
Inconclusive results and toxic doses are left out. No stated cut-off is given here; in the data, active means T/C of 150% or more; inactive means T/C below 125%.

Test system: L1210 leukemia ip in BDF1 mice, survival T/C
Experiment: NCI In Vivo Anticancer Drug Screen. Data for tumor model L1210 Leukemia (intraperitoneal) in B6D2F1 (BDF1) mice
Conditions: endpoint: mean survival time, higher = longer survival
Method in brief: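 Tumor cells were implanted, animals were treated, and survival was followed. The result divides the treated measurement by the vehicle-control measurement.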

[1] = dose: 100.0 mg/kg/injection, schedule: Q04DX002 (ip), vehicle: saline with Tween-80
[2] = dose: 200.0 mg/kg/injection, schedule: Q04DX002 (ip), vehicle: saline with Tween-80
[3] = dose: 50.0 mg/kg/injection, schedule: Q04DX002 (ip), vehicle: saline with Tween-80
[4] = dose: 100.0 mg/kg/injection, schedule: Q01DX009 (ip), vehicle: saline with Tween-80
[5] = dose: 200.0 mg/kg/injection, schedule: Q01DX009 (ip), vehicle: saline with Tween-80
[6] = dose: 400.0 mg/kg/injection, schedule: Q01DX009 (ip), vehicle: saline with Tween-80
[7] = dose: 50.0 mg/kg/injection, schedule: Q01DX009 (ip), vehicle: Klucel (hydroxypropylcellulose) (HPC)
[8] = dose: 100.0 mg/kg/injection, schedule: Q01DX009 (ip), vehicle: Klucel (hydroxypropylcellulose) (HPC)
[9] = dose: 200.0 mg/kg/injection, schedule: Q01DX009 (ip), vehicle: Klucel (hydroxypropylcellulose) (HPC)
[10] = dose: 100.0 mg/kg/injection, schedule: Q04DX003 (ip), vehicle: Klucel (hydroxypropylcellulose) (HPC)
[11] = dose: 200.0 mg/kg/injection, schedule: Q04DX003 (ip), vehicle: Klucel (hydroxypropylcellulose) (HPC)
[12] = dose: 400.0 mg/kg/injection, schedule: Q04DX003 (ip), vehicle: Klucel (hydroxypropylcellulose) (HPC)
[13] = dose: 50.0 mg/kg/injection, schedule: Q01DX001 (ip), vehicle: saline
[14] = dose: 100.0 mg/kg/injection, schedule: Q01DX001 (ip), vehicle: saline
[15] = dose: 200.0 mg/kg/injection, schedule: Q01DX001 (ip), vehicle: saline
[16] = dose: 400.0 mg/kg/injection, schedule: Q01DX001 (ip), vehicle: saline
[17] = dose: 100.0 mg/kg/injection, schedule: Q04DX003 (ip), vehicle: saline with Tween-80
[18] = dose: 200.0 mg/kg/injection, schedule: Q04DX003 (ip), vehicle: saline with Tween-80
[19] = dose: 400.0 mg/kg/injection, schedule: Q01DX009 (ip), vehicle: Klucel (hydroxypropylcellulose) (HPC)
[20] = dose: 400.0 mg/kg/injection, schedule: Q04DX003 (ip), vehicle: saline with Tween-80

Measured: T/C

CC(C)(C)CC(O)Cc1ccccc1 (configuration not stated)
inactive: [1] 93 % of control | [2] 93 % of control

C/C=C(/Cl)C(=O)O
inactive: dose: 5.0 mg/kg/injection, schedule: Q01DX001 (ip), vehicle: saline 100 % of control | dose: 10.0 mg/kg/injection, schedule: Q01DX001 (ip), vehicle: saline 97 % of control | dose: 20.0 mg/kg/injection, schedule: Q01DX001 (ip), vehicle: saline 97 % of control | dose: 40.0 mg/kg/injection, schedule: Q01DX001 (ip), vehicle: saline 103 % of control | dose: 80.0 mg/kg/injection, schedule: Q01DX001 (ip), vehicle: saline 103 % of control

O=C(CC1NCCCC1O)Cn1cnc2cc3c(cc2c1=O)OCO3 (configuration not stated)
inactive: dose: 5.0 mg/kg/injection, schedule: Q01DX009 (ip), vehicle: saline 117 % of control | dose: 5.0 mg/kg/injection, schedule: Q04DX003 (ip), vehicle: saline 105 % of control | dose: 10.0 mg/kg/injection, schedule: Q01DX009 (ip), vehicle: saline 122 % of control | dose: 10.0 mg/kg/injection, schedule: Q04DX003 (ip), vehicle: saline 105 % of control | dose: 20.0 mg/kg/injection, schedule: Q01DX009 (ip), vehicle: saline 95 % of control | dose: 20.0 mg/kg/injection, schedule: Q04DX003 (ip), vehicle: saline 117 % of control

CCCCN(CCCC)S(=O)(=O)CCC
inactive: [3] 101 % of control | [1] 97 % of control | [2] 97 % of control

Cc1cccc(Cl)c1NC(=O)CCCl
inactive: [4] 103 % of control | [5] 104 % of control | [6] 90 % of control

S=c1n(Cc2ccccc2)cnc2ncnn12
inactive: [7] 93 % of control | [8] 97 % of control | [9] 95 % of control

O=[N+]([O-])c1ccc(SC2=NCCCN2)c([N+](=O)[O-])c1
inactive: dose: 12.5 mg/kg/injection, schedule: Q04DX002 (ip), vehicle: Klucel (hydroxypropylcellulose) (HPC) 106 % of control | dose: 25.0 mg/kg/injection, schedule: Q04DX002 (ip), vehicle: Klucel (hydroxypropylcellulose) (HPC) 95 % of control

CC(Cc1ccccc1)NC(=O)NCCCl (configuration not stated)
inactive: dose: 12.5 mg/kg/injection, schedule: Q01DX009 (ip), vehicle: Klucel (hydroxypropylcellulose) (HPC) 101 % of control | dose: 25.0 mg/kg/injection, schedule: Q01DX009 (ip), vehicle: Klucel (hydroxypropylcellulose) (HPC) 101 % of control | [7] 90 % of control | dose: 100.0 mg/kg/injection, schedule: Q01DX001 (ip), vehicle: Klucel (hydroxypropylcellulose) (HPC) 92 % of control | [10] 106 % of control | dose: 200.0 mg/kg/injection, schedule: Q01DX001 (ip), vehicle: Klucel (hydroxypropylcellulose) (HPC) 90 % of control | [11] 117 % of control | dose: 400.0 mg/kg/injection, schedule: Q01DX001 (ip), vehicle: Klucel (hydroxypropylcellulose) (HPC) 94 % of control

CCCCCC(=O)/C=C/c1ccc(C)cc1
inactive: dose: 100.0 mg/kg/injection, schedule: Q04DX003 (ip), vehicle: saline 102 % of control | dose: 200.0 mg/kg/injection, schedule: Q04DX003 (ip), vehicle: saline 100 % of control | dose: 400.0 mg/kg/injection, schedule: Q04DX003 (ip), vehicle: saline 112 % of control

COc1cc2oc3cc(C)oc(=O)c3c2cc1OC
inactive: [1] 106 % of control | [2] 95 % of control | dose: 400.0 mg/kg/injection, schedule: Q04DX002 (ip), vehicle: saline with Tween-80 103 % of control

CS(=O)(=O)OCCN(CCOS(C)(=O)=O)c1ccc(N=O)c(Cl)c1
inactive: dose: 0.08 mg/kg/injection, schedule: Q01DX015 (ip), vehicle: saline 97 % of control | dose: 0.14 mg/kg/injection, schedule: Q01DX015 (ip), vehicle: saline 103 % of control | dose: 0.22 mg/kg/injection, schedule: Q01DX001 (ip), vehicle: saline 114 % of control | dose: 0.23 mg/kg/injection, schedule: Q01DX015 (ip), vehicle: saline 114 % of control | dose: 0.5 mg/kg/injection, schedule: Q01DX001 (ip), vehicle: saline 122 % of control | dose: 1.0 mg/kg/injection, schedule: Q01DX015 (ip), vehicle: saline 124 % of control | dose: 2.0 mg/kg/injection, schedule: Q01DX015 (ip), vehicle: saline 97 % of control | dose: 4.0 mg/kg/injection, schedule: Q01DX001 (ip), vehicle: saline 117 % of control | dose: 4.5 mg/kg/injection, schedule: Q01DX001 (ip), vehicle: saline 86 % of control

O=C1CCN(CCN2CCC(=O)N(Cc3ccccc3)C2=S)C(=S)N1Cc1ccccc1
inactive: dose: 100.0 mg/kg/injection, schedule: Q04DX002 (ip), vehicle: Klucel (hydroxypropylcellulose) (HPC) 100 % of control | dose: 200.0 mg/kg/injection, schedule: Q04DX002 (ip), vehicle: Klucel (hydroxypropylcellulose) (HPC) 107 % of control | dose: 400.0 mg/kg/injection, schedule: Q04DX002 (ip), vehicle: Klucel (hydroxypropylcellulose) (HPC) 96 % of control

NC(=S)NC(=S)Nc1ccccc1
inactive: [10] 103 % of control | [11] 110 % of control | [12] 106 % of control

Oc1ccc2ccccc2c1N=Nc1ccc(N=Nc2ccccc2)cc1
inactive: [4] 102 % of control | [5] 106 % of control | [6] 102 % of control

Nc1nc(N)c(C=O)c(Nc2ccc(I)cc2)n1
inactive: [13] 100 % of control | [14] 100 % of control | [15] 123 % of control | [16] 117 % of control

CC1(C)OC(=O)C2C3CCC(C2C(=O)O)C31 (configuration not stated)
inactive: [10] 100 % of control | [11] 96 % of control | [12] 100 % of control

CCCCCCCCCCCCNC
inactive: dose: 12.5 mg/kg/injection, schedule: Q01DX009 (ip), vehicle: saline with Tween-80 92 % of control | dose: 25.0 mg/kg/injection, schedule: Q01DX009 (ip), vehicle: saline with Tween-80 93 % of control | dose: 25.0 mg/kg/injection, schedule: Q04DX003 (ip), vehicle: saline with Tween-80 103 % of control | dose: 50.0 mg/kg/injection, schedule: Q01DX009 (ip), vehicle: saline with Tween-80 91 % of control | dose: 50.0 mg/kg/injection, schedule: Q04DX003 (ip), vehicle: saline with Tween-80 93 % of control | [17] 93 % of control

Cc1ccc(NC(=S)NNC(=S)NNc2ccccc2)cc1C
inactive: [8] 90 % of control | [17] 89 % of control | [9] 102 % of control | [18] 93 % of control | [19] 103 % of control | [20] 91 % of control

COc1ccc(C2C=CC(c3ccccc3)C(c3ccccc3)C2[N+](=O)[O-])cc1OC (configuration not stated)
inactive: [17] 96 % of control | [18] 94 % of control | [20] 104 % of control

COc1cc(=O)n2cc(C)ccc2n1
inactive: [13] 98 % of control | [14] 101 % of control | [15] 95 % of control | [16] 90 % of control

O=C(O)CCCCCN1C(=O)C2CC=CCC2C1=O (configuration not stated)
inactive: dose: 6.0 mg/kg/injection, schedule: Q04DX002 (ip), vehicle: saline with Tween-80 106 % of control | dose: 12.5 mg/kg/injection, schedule: Q04DX002 (ip), vehicle: saline with Tween-80 91 % of control | dose: 25.0 mg/kg/injection, schedule: Q04DX002 (ip), vehicle: saline with Tween-80 98 % of control | [3] 102 % of control

CCCC/C(I)=C\S(=O)(=O)c1ccc(C)cc1
inactive: [14] 113 % of control | [15] 86 % of control | [16] 96 % of control

O=[N+]([O-])c1ccc(O)cc1
inactive: dose: 12.5 mg/kg/injection, schedule: Q04DX003 (ip), vehicle: saline + alcohol 103 % of control | dose: 25.0 mg/kg/injection, schedule: Q04DX003 (ip), vehicle: saline + alcohol 100 % of control | dose: 50.0 mg/kg/injection, schedule: Q04DX003 (ip), vehicle: saline + alcohol 108 % of control | [14] 113 % of control | [1] 102 % of control | [15] 101 % of control | [2] 91 % of control

CC1(C)CC(=O)CC(C)(C)N1O
inactive: [8] 94 % of control | [10] 101 % of control | [9] 98 % of control | [11] 94 % of control | [19] 100 % of control | [12] 94 % of control
